In US9693995B2, “Pharmaceutical composition for topical administration” (Ziarco Pharma Ltd., priority 2014, dated 2017):
pIC50: −log10 of the molar value.

Columns and labels:
[1] = Small scale in vitro permeation/penetration experiment, Franz diffusion cell; assay type: in vitro ADME, human
Source text: Commonly, in vitro skin permeation experiments involve the use of a diffusion cell designed to mimic the physiological and anatomical conditions of skin in situ. The model used in this experiment was the Franz diffusion cell (Finnin et al. Topical and Transdermal Drug Delivery 2012: 85-100, Benson and Watkinson (Eds), incorporated herein by reference). Skin prepared as described below was positioned between the two halves of the cell with the Stratum corneum facing the donor compartment allowing for drug application. The aim of the work was to compare the drug concentrations permeating into and across dermatomed human skin when applied from different formulations/solvent systems. […]
Two solvent systems were selected for a small scale in vitro drug permeation study and was dosed as described below: • (i) The cells were assembled as described above. • (ii) Nine cells were assembled. Two solvent system (n=3), respective placebo solvent system (n=1) and a blank cell (n=1) were assessed during the feasibility experiment. • (iii) The selected solvent systems (6 mg) were applied directly to the surface of the skin with a positive displacement pipette (resulting in a dose of approximately 10 mg/cm^2). […] Weights and volumes applied (to ensure a 6 mg dose) were recorded. • (iv) Receiver fluid (200 μL) was removed at the following time points t=0, 1, 2, 4, 6, 24, 30 and 48 h. […]

PMA-mediated skin oedema = test: PMA-induced inflammation in mice (ear thickness by calliper); assay type: in vivo, Balb/C laboratory mice
Protocol: Phorbol 12-myristate 13-acetate (PMA) is commonly used to induce inflammation and oedema of the skin of laboratory animals as a preclinical inflammation model.
In the present example PMA was dissolved in a 10% ethanol solution to a final concentration of 0.4 μg per μl. A 10 μl was applied to the ears of Balb/C laboratory mice 1 hour after topical application of 3-{4-[2-{5-chloro-1-(diphenylmethyl)-2-[2-({[2-(trifluoromethyl)benzyl]sulfonyl}amino)ethyl]-1H-indol-3-yl}ethyl]sulfonyl}phenyl}propanoic acid (Compound I) in a 10% ethanol solution at either 0.3% or 3% w/w. As a negative control the vehicle was applied without the active compound. Positive controls were indomethacin (a non-steroidal anti-inflammatory drug) and CAY10650 (a known cPLA2α inhibitor).
The level of oedema was monitored by measurement of ear thickness by calliper at intervals of 1, 3, 6 and 24 hours

cPLA2α = target: T1, cPLA2α (Homo sapiens, UniProt P47712); settings: cellular and enzymatic assays; cited from earlier work
T1 sequence (P47712 1-749): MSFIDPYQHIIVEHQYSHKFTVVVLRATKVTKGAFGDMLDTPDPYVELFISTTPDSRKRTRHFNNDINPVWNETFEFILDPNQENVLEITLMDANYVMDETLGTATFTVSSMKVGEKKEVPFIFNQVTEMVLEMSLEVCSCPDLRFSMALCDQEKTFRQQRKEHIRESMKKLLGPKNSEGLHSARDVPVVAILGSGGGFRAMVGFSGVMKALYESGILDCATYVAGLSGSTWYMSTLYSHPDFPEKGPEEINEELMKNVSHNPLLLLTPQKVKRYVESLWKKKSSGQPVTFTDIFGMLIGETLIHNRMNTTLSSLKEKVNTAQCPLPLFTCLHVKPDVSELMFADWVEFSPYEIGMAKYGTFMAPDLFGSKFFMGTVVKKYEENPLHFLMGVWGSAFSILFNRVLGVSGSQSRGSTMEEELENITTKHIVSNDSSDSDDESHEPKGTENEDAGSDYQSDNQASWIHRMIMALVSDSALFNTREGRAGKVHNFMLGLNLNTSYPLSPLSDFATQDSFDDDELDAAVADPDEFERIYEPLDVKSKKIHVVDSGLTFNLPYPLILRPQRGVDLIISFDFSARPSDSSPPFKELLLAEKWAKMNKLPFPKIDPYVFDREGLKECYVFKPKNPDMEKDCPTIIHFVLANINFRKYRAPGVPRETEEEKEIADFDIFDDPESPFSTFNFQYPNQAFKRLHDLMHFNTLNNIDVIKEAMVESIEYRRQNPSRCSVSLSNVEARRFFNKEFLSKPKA

PLA2 = settings: read-out: IC50, inhibition of PLA2 activity; acid extracted intact human neutrophil homogenate; Marshall et al. 1995; cited from earlier work

SMILES | total recovery of Compound I ([1]; for each solvent system applied (SS1, SS2), after t=48 h, single skin donor) | Compound I detected in the receiver fluid ([1]; solvent systems SS1 and SS2, 48 h experiment, irrespective of sample volume (200 μL, 1.5 mL), receiver fluid EtOH 20% v/v in water) | efficacy against PMA-mediated skin oedema relative to positive control (PMA-mediated skin oedema; topical Compound I versus orally-dosed indomethacin) | reduction in PMA-mediated skin oedema (PMA-mediated skin oedema; topical, 0.3% or 3% w/w in 10% ethanol solution, 1 hour before PMA on ears, ear thickness at 1, 3, 6 and 24 hours) | inhibition of cPLA2α activity (potency in words) (cPLA2α) | pIC50 (PLA2)
O=C(O)CCc1ccc(S(=O)(=O)CCc2c(CCNS(=O)(=O)Cc3ccccc3C(F)(F)F)n(C(c3ccccc3)c3ccccc3)c3ccc(Cl)cc23)cc1 [Compound I] | 90.00-109.72 % of the applied dose | not detected | comparable to orally-dosed indomethacin | dose-dependent reduction | sub-low nanomolar inhibitor | 
O=C(O)c1ccccc1Oc1ccc(C(F)(F)F)cc1NS(=O)(=O)c1cc(C(F)(F)F)cc(C(F)(F)F)c1 [SB 203347] |  |  |  |  |  | 5.33
